Laboratory results from patent US11401255B2, “Small molecule activators of Parkin enzyme function” (Mayo Foundation for Medical Education and Research, priority 2016, dated 2022).

Tests used:
[1] = Metabolic stability in mouse liver microsomes; type: in vitro ADME; details: 2 μM, 40 minutes, mouse hepatic microsomes
Method: Metabolic stability was defined as the percentage of parent compound lost over time in the presence of a metabolically active test system, such as rodent liver microsomal fractions.
Mouse hepatic microsomes were isolated from pooled (50), perfused livers of BALB/c male mice according to the standard protocol (Hill, J. R. in Current Protocols in Pharmacology 7.8.1-7.8.11, Wiley Interscience, 2003). The batch of microsomes was tested for quality control using imipramine, propranolol and verapamil as reference compounds. Microsomal incubations were carried out in 96-well plates in 5 aliquots of 40 μL each (one for each time point). Liver microsomal incubation medium contained PBS (100 mM, pH 7.4), MgCl2 (3.3 mM), NADPH (3 mM), glucose-6-phosphate (5.3 mM), glucose-6-phosphate dehydrogenase (0.67 units/mL) with 0.42 mg of liver microsomal protein per mL. Control incubations were performed replacing the NADPH-cofactor system with PBS. Compounds 1-4 and 31 (2 μM, final solvent concentration 1.6%) were each incubated with microsomes at 37° C. while shaking at […]. Incubations were performed in duplicates. Five time points over 40 minutes were analyzed. The reactions were stopped by adding 12 volumes of 90% acetonitrile-water to incubation aliquots, followed by protein sedimentation by centrifuging at 5500 rpm for 3 minutes. Supernatants were analyzed using the HPLC system coupled with tandem mass spectrometer. The elimination constant (kel), half-life (t1/2) and intrinsic clearance (Clint) were determined in a plot of ln(AUC) versus time, using linear regression analysis:
[formula] [formula] In order to indicate the quality of the linear regression analysis, the R (correlation coefficient) values were provided. In some cases, the last time point was excluded from the calculations to ensure acceptable logarithmic linearity of decay. C. Results

Parkin = Parkin (Homo sapiens (Human), UniProt O60260); test: Parkin substrates and pS65-Ub western blot in HeLa cells stably expressing untagged Parkin; type: cell-based; details: 5 μM, 2 h, then 3.5 μM CCCP
Parkin, sequence (O60260 whole entry): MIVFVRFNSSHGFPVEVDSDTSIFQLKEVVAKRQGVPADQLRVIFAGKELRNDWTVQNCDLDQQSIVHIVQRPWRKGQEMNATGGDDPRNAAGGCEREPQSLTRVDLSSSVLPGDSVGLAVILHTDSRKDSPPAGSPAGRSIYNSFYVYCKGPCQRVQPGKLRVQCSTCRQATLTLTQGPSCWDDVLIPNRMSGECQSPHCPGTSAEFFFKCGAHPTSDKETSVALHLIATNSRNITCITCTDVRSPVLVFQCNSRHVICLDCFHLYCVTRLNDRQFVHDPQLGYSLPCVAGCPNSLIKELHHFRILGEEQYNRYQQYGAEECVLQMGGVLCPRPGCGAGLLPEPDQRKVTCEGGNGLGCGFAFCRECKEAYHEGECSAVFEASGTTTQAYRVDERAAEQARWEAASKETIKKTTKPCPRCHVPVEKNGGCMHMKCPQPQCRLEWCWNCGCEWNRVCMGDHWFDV
Method: (§1) HeLa cells stably expressing untagged Parkin were left untreated or pre-treated with 5 μM of Compounds 1, 2, 3, 4, and 31 for 2 h and treated without (−) or with (+) low dose CCCP (3.5 μM CCCP). As a positive control (PC), some cells were treated with 10 μM CCCP. Lysates were loaded onto 8-16% Tris-Glycine gels, blotted onto membranes and probed with antibodies against Parkin substrates.
as §1, with “The” for “As a”, “(PC) was” for “(PC), some cells were”, “CCCP for 2 h.” for “CCCP.”, “pS65-Ub.” for “Parkin substrates.”
Cells were harvested in RIPA buffer or NP-40 lysis buffer containing protease and phosphatase inhibitors (Complete and PhosStop, Roche Applied Science) with the exception of Parkin Ub charging experiments where preheated (95° C.) SDS lysis buffer (50 mM Tris pH 7.6, 150 mM NaCl, 1% SDS) was used. Concentration of cell lysates was determined with bicinchoninic acid (Pierce Biotechnology). For Parkin Ub charging experiments, aliquots of lysates were treated with […] for 1 h at 37° C. pH was neutralized with equinormal HCl.
Protein was subjected to SDS-PAGE using 4-20% or 8-16% Tris-Glycine gels (Invitrogen) and transferred onto polyvinylidene fluoride (PVDF) (Millipore). Membranes were incubated with primary antibodies overnight at 4° C. followed by HRP-conjugated secondary antibodies (1:10,000; Jackson ImmunoResearch Laboratories). Primary antibodies used: beta III tubulin (rabbit, 1:1000, CST, #5568, CST), FLAG (mouse, 1:250,000, Sigma, F3165), GAPDH (mouse, 1:100,000-500,000, Meridian Life science, H86504M), GST (1:10,000, Sigma, G7781), MFN1 (mouse, 1:5,000, Abcam, ab57602), MFN2 (mouse, 1:5,000, Abcam, ab56889), Parkin (mouse, 1:2,000, Cell Signaling, #4211), pSer65-Ub (rabbit, 1:15,000, in-house (Fiesel et al., EMBO Reports (2015) 16:1114-30; Fiesel et al., (2015) Autophagy 11:2125-2126)), TOM70 (rabbit, 1:5,000, Proteintech, 14528-1-AP), UBE2L3 (rabbit, 1:10,000, ProteinTech, 14415-1-AP), VDAC1 (mouse, 1:5,000, Abcam, ab14734), vinculin (mouse, 1:100,000, Sigma, V9131).
As readout for its activation, a catalytic site mutant that can be used to trap Ub-charged Parkin was employed. […] To further validate effects on enhanced activation, we used HeLa cells expressing untagged native Parkin. PC treatment with 10 μM CCCP induced pSer65-Ub signals and the complete degradation of some substrates (e.g., Mitofusins) while the most abundant, VDAC1, was still ubiquitylated (FIG. 8). Similar effects were seen when cells had been pre-incubated with 5 μM of compound before a low dose CCCP, which had no effect on its own.

CC(C)c1nccn1CC(=O)Nc1ccc(-c2ccccc2)cc1 [Compound 2]
metabolic stability [1]: moderate stability | Parkin substrate levels (ubiquitination and degradation) (Parkin): reduced substrate levels | pS65-Ub signal (western blot) (Parkin): robust induction of pS65-Ub

Cc1nc2c(c(N3CCCN(Cc4ccccc4)CC3)n1)CCCC2 [Compound 31]
metabolic stability [1]: low stability | Parkin substrate levels (ubiquitination and degradation) (Parkin): reduced substrate levels | pS65-Ub signal (western blot) (Parkin): robust induction of pS65-Ub

CC(C)(C)Sc1ccc(NC(=O)Cn2ccnc2)cc1 [Compound 3]
metabolic stability [1]: high metabolic stability | Parkin substrate levels (ubiquitination and degradation) (Parkin): reduced substrate levels | pS65-Ub signal (western blot) (Parkin): robust induction of pS65-Ub

O=C(Cn1ccnc1-c1ccccn1)Nc1ccc(-c2ccccc2)cc1 [Compound 4]
metabolic stability [1]: low stability | Parkin substrate levels (ubiquitination and degradation) (Parkin): reduced substrate levels | pS65-Ub signal (western blot) (Parkin): robust induction of pS65-Ub

O=C(Cn1cnc2c1CCCC2)Nc1ccc(-c2ccccc2)cc1 [Compound 1]
metabolic stability [1]: moderate stability | Parkin substrate levels (ubiquitination and degradation) (Parkin): reduced substrate levels | pS65-Ub signal (western blot) (Parkin): robust induction of pS65-Ub
